Test results published in a melting point compilation (Tetko et al.; mined from patent text by program, amines drawn as free bases though some values may be those of a salt).

Compound | melting point [°C]
O=C(Nc1ccc(Oc2ccc(N(CC(=O)N3CCN(Cc4ccc5c(c4)OCO5)CC3)C(=O)C(F)(F)F)cc2)nc1)c1ccc(Cl)c(Cl)c1 | 211 to 213
CCOC(=O)C(=Cc1ccco1)c1csc(N)n1 | 109 to 110
CC(C)(C)c1ccc(C(=O)NP(N)(N)=O)cc1 | 232
CC(C)(C)OC(=O)NCCOC(=O)COc1ccc(CCCCNC(N)=NC(=O)c2nc(Cl)c(N)nc2N)cc1 | 80 to 82
COc1ccc(C2CCN(C(=O)C(=O)NO)CC2)cc1C=C1CCCC1 | 127 to 128
CCN(CC)CCNC(=O)c1cc(Cl)c(N)cc1OCC(=O)Cc1ccccc1 | 138 to 139
CSC1C2=C(CCCC2)C(=O)N1c1ccc(Cl)cc1F (centres undefined) | 97 to 98
CCCc1nn(-c2ccc(C(F)(F)F)cn2)cc1CCCCOc1nn(-c2ccccc2)cc1CC(=O)O | 114 to 115
COc1ccc(S(=O)(=O)CCCc2ccc(CC(=O)O)cc2)cc1 | 149 to 150
COc1ccc(-c2ccc(-c3ccc(F)cc3)nc2-c2ccc(O)cc2)cc1 | 143 to 145
N#CC1(CCNC(=O)C(Cl)Cl)CC1 | 97 to 100
CCOC(=O)c1cnc2nn(C)cc2c1NCCCN(C)C | 61 to 63
CCN(CC)CCNC(=S)NC(=O)c1ccccc1 | 54 to 56
Cc1cc(-c2c3ccccc3c(C)c3sc4ccccc4c23)cc(C)c1O | 147 to 149
Cc1cc(O)c(SC23CC4CC(CC(C4)C2)C3)c(=O)o1 | 176
CCOC(=O)c1cc(-c2ccc(Cl)cc2)nc2ccnn12 | 160 to 161
Cc1nnc(-c2ccc3occ(-c4ccc(SCF)cc4)c3c2)o1 | 143 to 144
CNC(=O)c1[nH]c(C)c2c1CN=C(c1ccccc1F)c1cc(Cl)ccc1-2 | 252 to 255
CCOC(=O)[C@H](CC(C)C)SC[C@H](O)[C@H](CC1CCCCC1)NC(=O)[C@H](Cc1c[nH]cn1)NC(=O)[C@H](Cc1ccccc1)NC(=O)OC(C)(C)C | > 82
CC(=O)NC(Cc1ccc(OCCc2nc(-c3ccccc3)oc2C)cc1)C(N)=O (centres undefined) | 224 to 226

Compound | melting point [°C]
O=C(O)COc1nnc(C(Cl)(Cl)Cl)s1 | 100
COc1ccc(C(=O)NCCOc2cccc3c2OCCO3)c(OC)c1OC | 128
O=C1C(c2cc3c(cc2O)OCCC3)c2ccccc2N1C(c1ccccc1)c1ccccc1 (centres undefined) | 207 to 210
Cc1oc(-c2ccccc2)nc1COc1ccc(OCc2oc(-c3ccccc3)nc2CO)cc1 | 143 to 144
CS(=O)(=O)c1cc(Cl)c2[nH]cc(CC(N)C(=O)O)c2c1 (centres undefined) | 292 to 294
Brc1ccc2cc(N(c3ccccc3)c3ccccc3)ccc2c1 | 136 to 137
O=c1[nH][nH]c(=O)c2c(O)c3cc(Cl)ccc3nc12 | 228 to 230
COC(=O)c1ccc(Br)c(C=O)c1 | 71 to 74
O=C(COc1ccccc1)N[C@H]1C(=O)N[C@H]1CO (relative stereo) | 153 to 154
NC(=O)CN1C(=O)[C@H](NC(=O)c2cc3ccccc3[nH]2)[C@H](c2ccccc2)Sc2cc(Cl)ccc21 (relative stereo) | 174 to 178
Nc1ccc(-c2cccs2)c(C(=O)Nc2ccc3c(c2)CCC3)c1 | 62 to 67
CCCc1c(OCc2cc(C=CC(=O)O)ccc2OC)ccc(C(C)=O)c1O | 245 to 246
NCCCC[C@H](O)C(=O)O | 197 to 199
CC(=O)N1CCC2(CC1)Cn1cc([N+](=O)[O-])nc1O2 | 232 to 234
COc1cc2ncc(C#N)c(Nc3ccc(F)c(Cl)c3)c2cc1NC(=O)C=CCN1CCC(O)(O)CC1 | 225 to 230
NC(=S)NC[C@H]1CN(c2ccc(-n3cncn3)cc2)C(=O)O1 | 214 to 215
COc1ccc(Cn2ccnc2)cc1 | 157 to 159
O=C1Nc2ccccc2N(C(=O)CCCCl)c2ccccc21 | 151 to 152
O=C(O)C(NS(=O)(=O)c1ccc(Cl)cc1)C1CCCCC1 (centres undefined) | 120 to 128
